# Test results taken from a melting point compilation (Tetko et al.; mined from patent text by program, amines drawn as free bases though some values may be those of a salt).
row,melting point,Compound
1,230 to 232 °C,Cc1c(F)c(N2CCC(N)C2)c(F)c2c1c(=O)c(C(=O)O)cn2-c1ccc(F)cc1F (stereo not drawn)
2,192 to 194 °C,COc1c(C)cc(-c2[nH]c3ccc(NS(=O)(=O)c4ccc(C)cc4)cc3c2C)cc1C
3,98 to 99 °C,O=C(O)c1c(F)c(F)cc([N+](=O)[O-])c1F
4,125 °C,CCOC(=O)c1cc(Br)c(C(=O)OCC)cc1Cl
5,110 to 112 °C,CC=C(C)C(=O)c1c(O)c2c(c3c(CCC)cc(=O)oc13)OC(C)(C)C=C2
6,101 °C,NCCCCCc1nc2ccccc2[nH]1
7,77.5 to 78 °C,O=C1C(Cl)=C(c2ccccc2)C1(F)F
8,77 to 79 °C,Clc1nc(Cl)c2c(n1)CCC2
9,97 to 98 °C,CS(=O)(=O)c1ccc(C(=O)Cl)c(Cl)c1-c1nccs1
10,152 to 154 °C,CC1(C)CNc2nc(-c3ccncc3)cc(=O)n2C1
11,146 to 147 °C,OCc1cccc2nc(-c3ccncc3)oc12
12,191 °C,O=C(COc1cc(-c2ccc(Cl)cc2)nc2ccccc12)N1CCOCC1
13,63 to 70 °C,CC(=O)SCC(Cc1ccccc1C)C(=O)O (stereo not drawn)
14,165 to 166 °C,O=C(O)CCN1CCN(Cc2ccccc2)CC1
15,134 to 136 °C,CCOC(=O)c1cn(C2CC2)c2c(F)c(NCC(O)COC(=O)c3ccccc3)c(F)cc2c1=O (stereo not drawn)
16,196 to 197 °C,Cc1cc(NS(=O)(=O)c2ccc(S(N)(=O)=O)cc2)c2[nH]cc(Br)c2c1
17,99 to 101 °C,COC(=O)Cc1c(C(=O)OC)ccn1CCOS(C)(=O)=O
18,200 to 201 °C,CCCn1nc2c(NC)nc3ccccc3c2c1N
19,193 to 194 °C,COc1ccc(C2=NN(C3CCN(C(=O)CN4C(=O)c5ccccc5C4=O)CC3)C(=O)C(C)(C)C2)cc1OC
20,168 °C,CC(=O)Nc1nc(OCC(C)C)c2nc(Cl)ccc2n1
21,248 to 250 °C,O=C(NCc1cc[nH]c(=O)c1)c1nc2ccc(F)c(OCc3ccc(F)cc3)c2c(=O)[nH]1
22,284 to 286 °C,COc1c(-c2ccc3cc(NS(C)(=O)=O)ccc3c2)cc(N2CCNC2=O)cc1C(C)(C)C
23,119 to 121 °C,O=C(Nc1ccccc1)c1cscc1Cl
24,151 to 154 °C,COc1cc2c(cc1F)CCN=C2C1(c2ccc(Cl)cc2Cl)CC1

row,melting point,Compound
1,181 to 182 °C,CCOP(=O)(Cc1ccc(NC(=O)/C=C/c2cn[nH]c2-c2ccc(F)cc2)cc1)OCC
2,148 to 151 °C,CN1C(=S)NN2CCCC21c1ccccc1 (stereo not drawn)
3,124 to 125 °C,CCCCCCCCCCCCCCCCN(CCCCCCCCCCCCCCCC)C(CCCCN)C(=O)O (stereo not drawn)
4,224 to 225 °C,Cc1cccc2sc(-n3nc4c(c3O)-c3ccccc3CC4)nc12
5,127 to 129 °C,O=C(c1ccc(C2CCCCC2)cc1)N1Cc2cccn2Cc2ccccc21
6,> 250 °C,O=C(O)C(=Cc1cc(C(=O)O)c(=O)n2ccccc12)C(=O)O
7,157 to 159 °C,CC(C)[C@H](NC(=O)OCc1csc(N(C)C)n1)C(=O)N[C@@H](Cc1ccccc1)[C@@H](O)C[C@H](Cc1ccccc1)NC(=O)OCc1cncs1
8,233 to 234 °C,CCCOc1ccc(S(C)(=O)=O)cc1-c1nc2c(CC)n(CC3CC3)nc2c(=O)[nH]1
9,80 to 81 °C,O=Cc1ccc(OCc2ccccc2)cc1OCc1ccccc1
10,94 to 122 °C,C[C@@H](n1cnc2cccc(F)c2c1=O)[C@](O)(Cn1cncn1)c1ccc(F)cc1F
11,141 to 143 °C,CC(C)(C)OC(=O)CN(Cc1cccc(Cl)c1)S(=O)(=O)c1ccc2c(Cl)cnc(Cl)c2c1
12,147 to 149 °C,Cc1nc(CCCCCCC(=O)O)c(C(=O)O)s1
13,> 220 °C,COc1ccc(-c2ccc3c(n2)[nH]c2ccccc23)cc1
14,49.9 °C,Cc1cc2c(C(C)(C)C)c(O)ccc2o1
15,135 to 138 °C,CCN(CC)CCOc1ccc(CNC(=O)C#Cc2ccc(C)cc2Cl)cc1
16,69 to 71 °C,Cc1ccc([N+](=O)[O-])c(C)c1C1OCCO1
17,164 to 166 °C,COc1cc2sc(-c3cccnc3)nc2cc1N=C=S
18,127 to 129 °C,COc1ccc(C2Sc3ccc(OC)cc3N(CCN(C)C)C(=O)C2O)cc1 (stereo not drawn)
19,86 to 87 °C,Nc1ccc(Cn2ncnn2)cc1
20,87 °C,COC(=O)CCC(C)C1CCC2C3CCC4CCCCC4(C)C3CCC12C (stereo not drawn)
21,104 to 105 °C,CCOC(=O)C(NS(=O)(=O)c1ccc(C)cc1)C1CCOC1 (stereo not drawn)
22,58 to 61 °C,NCCn1c(-c2ccc(Br)cc2)csc1=Nc1ccccc1
23,239 to 242 °C,CS(=O)(=O)NCCn1c(CO)nc2c(N)nc3cccnc3c21
24,129 to 130 °C,CC(C)n1nc(-c2c(OCCF)nc(N)nc2-c2ccccc2)ccc1=O

row,melting point,Compound
1,126 to 128 °C,CC(C)=NNc1ccc(OCC(C)(C)NCC(O)COc2ccccc2C#N)nn1 (stereo not drawn)
2,125 to 127 °C,O=C1CCC(N2Cc3c(OCc4ccc(CN5CCN(C(=O)C(F)(F)F)CC5)cc4)cccc3C2=O)C(=O)N1 (stereo not drawn)
3,195 °C,COc1ccc(-c2cc3ccccc3[nH]2)c(O)c1
4,128 to 129 °C,CCOC(=O)C(=O)Nc1cc(C)nc(N2CCc3ccccc3C2)c1
5,230 to 235 °C,COc1cc2c(Cl)c(C#N)cnc2cc1NC(C)=O
6,118 to 119 °C,CCCCOc1c(CNC(=O)OC(C)(C)C)n(CC2CC2)c(=O)c2ccc(Br)cc12
7,131 to 140 °C,O=C(O)Cc1ccc(NC(=O)C(COC2CCCCO2)NS(=O)(=O)c2ccc(Cl)c([N+](=O)[O-])c2)cc1 (racemic)
8,100 to 101 °C,CCS(=O)(=O)CCOc1cc(CCCOc2nn(Cc3ccccc3)cc2CC(=O)O)n(Cc2ccc(Cl)cc2Cl)n1
9,152 to 154 °C,Cc1nc2ccc(Cl)cn2c(=O)c1CCN1CCN(c2cccc(Cl)c2)CC1
10,140 to 141 °C,OCCCOC(c1ccccc1)c1ccccc1
11,154 to 156 °C,O=C(O)C(=O)CC(=O)c1cccn1Cc1cccc(F)c1F
12,77 to 78 °C,O=C(O)C(=O)c1ccc(OCCCc2ccc(F)cc2)cc1
13,85 to 87 °C,O=C1CCSc2cc(-c3ccccc3)ccc21
14,130 to 131 °C,CCOC(=O)c1oc(SC)c2c1CCC(Br)C2=O (stereo not drawn)
15,71 to 72 °C,COC(=O)[C@H](Cc1ccccc1)NC(=O)CCC#N
16,> 360 °C,Nc1cc2[nH]c(=O)oc2cc1N
17,199 to 200 °C,O=C(N[C@H](Cc1ccc(F)cc1)[C@@H](O)c1ccc(F)cc1)c1cccc2ccccc12 (racemic)
18,118 to 120 °C,CCCCc1ncc(CC(Cc2ccccc2)C(=O)OC)n1Cc1ccccc1Cl (stereo not drawn)
19,137 to 138 °C,CC(C)c1oc(-c2ccc(F)cc2)nc1CC(=O)O
20,189 to 190 °C,O=C(O)C=C1SC(=NC2CCCCC2)N(C2CCCCC2)C1=O
21,126 to 131 °C,N=C(N)NCCCCCOc1cccc2c1NC(=O)C(CC(=O)O)C2 (stereo not drawn)
22,100 to 102 °C,CC(=O)N1CCN(c2cc3nc(C(C)(C)C)sc3cc2N=C=S)CC1
23,82 °C,Cc1cccc(NC(=O)NC(C)C(=O)N(c2ccccc2)c2ccccc2)c1 (racemic)
24,84 to 86 °C,C=CCC1Oc2ccccc2-c2c(OC)cc3c(c21)C(C)=CC(C)(C)N3 (stereo not drawn)

row,Compound,melting point
1,COC(=O)c1ccc(CC(C)NCC(O)c2ccccc2)c(OC)c1 (stereo not drawn),102 to 104 °C
